Earlier results in patent publication US12370233B2, “Depot systems comprising glatiramer acetate” (MAPI PHARMA LTD., priority 2016, dated 2025).

Conditions: as reported by Rotstein et al., JAMA Neurol., 2015

Substance | NEDA at one year [%]
daclizumab [ZINBRYTA®] | 39
natalizumab [TYSABRI®] | 47
